Legend:
[1] = tested on: jejunal mucosal 5-HT in mice (C57 BL6); assay: Intestinal 5-HT depletion assay (Example B, single 150 mg/kg oral dose); format: in vivo, mouse; conditions: one day after oral administration of a single 150 mg/kg dose, P-value class (ANOVA)
Experimental: The efficacy of the TPH1 inhibitors of the invention was assessed for the ability to decrease intestinal serotonin concentration in mice. Mice (C57 BL6) were administered a single 150 mg/kg dose of test article by oral gavage. Each animal was euthanized by exsanguination under isoflurane anesthesia. Jejunal intestinal mucosa was isolated and homogenized in 300 μL of a buffer containing 0.3M trichloroacetic acid, 0.1M sodium acetate, 10 mM EDTA, 20 mM sodium bisulfate and 50 mM ascorbic acid. Following centrifugation the 5-HT levels in the supernatants were measured by HPLC. The remaining mucosal pellet was solubilized overnight at 37° C. in a 0.1% sodium dodecyl sulfate buffer in 0.1N NaOH followed by determination of protein concentrations using a BCA protein assay (Pierce, Rockford, Ill. 5-HT levels were normalized to protein and data were expressed as mean percent reduction of mucosal 5-HT levels relative to vehicle control SEM (percent 5-HT reduction). All animal studies were carried out with protocols approved by the Institutional Animal Care and Use Committee.
P-values, indicating statistical significance of the data (ANOVA) are provided in the table: * refers to P<0.05, ** refers to P<0.01, *** refers to P<0.005, and refers to P<0.0005.

[2] = target: T1, Recombinant human TPH1 (MBP tagged) (Homo sapiens, UniProt P17752); assay: TPH1 in vitro inhibition assay (kinetic fluorescence); format: biochemical; conditions: read-out: TPH1 Range (TPH1 inhibition IC50)
T1 construct: cloning full length human TPH1 cDNA in to a bacterial pMAL-c5E expression vector; made in house; host or cells: E. coli BL21 (DE3)
T1 sequence (P17752 1-444): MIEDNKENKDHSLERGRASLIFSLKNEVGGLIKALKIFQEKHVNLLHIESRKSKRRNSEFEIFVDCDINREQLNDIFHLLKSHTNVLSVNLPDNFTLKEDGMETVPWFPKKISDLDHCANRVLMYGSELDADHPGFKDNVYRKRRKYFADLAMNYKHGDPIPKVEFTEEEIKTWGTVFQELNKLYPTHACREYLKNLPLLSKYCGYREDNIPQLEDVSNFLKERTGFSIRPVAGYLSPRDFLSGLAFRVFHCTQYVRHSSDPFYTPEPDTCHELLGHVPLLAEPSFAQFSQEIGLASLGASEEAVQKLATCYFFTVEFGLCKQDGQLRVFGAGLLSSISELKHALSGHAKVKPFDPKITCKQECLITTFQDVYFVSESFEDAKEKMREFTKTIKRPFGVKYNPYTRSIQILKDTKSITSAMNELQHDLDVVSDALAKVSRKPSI
How it was run: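 Final mix: 15 nM MBP-TPH1, 30 μM Trp, 36 μM 6-methyltetrahydropterin, 25 μM ferrous ammonium sulfate, 50 mM MES pH 7.1, 1% DMSO, room temperature.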

Compound | Efficacy (statistical significance of reduction of mucosal 5-HT concentrations relative to vehicle) [1] | IC50 [2] [µM]
CCOC(=O)c1cccc(-c2ccc([C@@H](Oc3cc(N4CCC5(CC4)CN[C@H](C(=O)O)C5)nc(N)n3)C(F)(F)F)c(-n3ccc(C)n3)c2)c1 [Example 5] | ** (** refers to P<0.01) | 
Cc1ccn(-c2cc(C(F)(F)F)ccc2[C@@H](Oc2cc(N3CCC4(CC3)CN[C@H](C(=O)O)C4)nc(N)n2)C(F)(F)F)n1 [Example 10g, (S)-8-(2-amino-6-((R)-2,2,2-trifluoro-1-(2-(3-methyl-1H-pyrazol-1-yl)-4-(trifluoromethyl)phenyl)ethoxy)pyrimidin-4-yl)-2,8-diazaspiro[4.5]decane-3-carboxylic acid] | ** (** refers to P<0.01) | 
Cc1ccc([C@@H](Oc2cc(N3CCC4(CC3)CN[C@H](C(=O)O)C4)nc(N)n2)C(F)(F)F)c(-n2ccc(C)n2)c1 [Example 10h, (S)-8-(2-amino-6-((R)-2,2,2-trifluoro-1-(4-methyl-2-(3-methyl-1H-pyrazol-1-yl)phenyl)ethoxy)pyrimidin-4-yl)-2,8-diazaspiro[4.5]decane-3-carboxylic acid] | *** (*** refers to P<0.005) | 
Cc1ccn(-c2cc(Cl)ccc2[C@@H](Oc2cc(N3CCC4(CC3)CN[C@H](C(=O)O)C4)nc(C)n2)C(F)(F)F)n1 [Example 28, (S)-8-(6-((R)-1-(4-chloro-2-(3-methyl-H-pyrazol-1-yl)phenyl)-2,2,2-trifluoroethoxy)-2-methylpyrimidin-4-yl)-2,8-diazaspiro[4.5]decane-3-carboxylic acid] | * (* refers to P<0.05) | 
Cc1ccn(-c2cc(-c3cccnc3)ccc2[C@@H](Oc2cc(N3CCC4(CC3)CN[C@H](C(=O)O)C4)nc(C)n2)C(F)(F)F)n1 [Example 29z, (S)-8-(2-methyl-6-((R)-2,2,2-trifluoro-1-(2-(3-methyl-1H-pyrazol-1-yl)-4-(pyridin-3-yl)phenyl)ethoxy)pyrimidin-4-yl)-2,8-diazaspiro[4.5]decane-3-carboxylic acid] | ** (** refers to P<0.01) | 
Cc1ccn(-c2cc(Cl)ccc2[C@@H](Oc2cc(N3CCC4(CC3)CNC(C(=O)O)C4)nc(NC3CCCCC3)n2)C(F)(F)F)n1 (stereo partly drawn) [Example 31, 8-(6-((R)-1-(4-chloro-2-(3-methyl-H-pyrazol-1-yl)phenyl)-2,2,2-trifluoroethoxy)-2-(cyclohexylamino)pyrimidin-4-yl)-2,8-diazaspiro[4.5]decane-3-carboxylic acid] | * (* refers to P<0.05) | 
Nc1nc(O[C@H](c2ccc(Cl)cc2-c2ccccc2)C(F)(F)F)cc(N2CCC3(CC2)CN[C@H](C(=O)O)C3)n1 [Example 34r, (S)-8-(2-amino-6-((R)-1-(5-chloro-[1,1′-biphenyl]-2-yl)-2,2,2-trifluoroethoxy)pyrimidin-4-yl)-2,8-diazaspiro[4.5]decane-3-carboxylic acid] | *** (*** refers to P<0.005) | 
Nc1nc(O[C@H](c2ccc3ccccc3c2)C(F)(F)F)cc(N2CCC3(CC2)CN[C@H](C(=O)O)C3)n1 [Example 59b, (S)-8-(2-amino-6-((R)-2,2,2-trifluoro-1-(naphthalen-2-yl)ethoxy)pyrimidin-4-yl)-2,8-diazaspiro[4.5]decane-3-carboxylic acid] |  | 0.3 to 3
Cc1cc(-c2ccc3ncc(F)cc3c2)ccc1[C@@H](Oc1cc(N2CCC3(CC2)CN[C@H](C(=O)O)C3)nc(N)n1)C(F)(F)F [Example 59c, (S)-8-(2-amino-6-((R)-2,2,2-trifluoro-1-(4-(3-fluoroquinolin-6-yl)-2-methylphenyl)ethoxy)pyrimidin-4-yl)-2,8-diazaspiro[4.5]decane-3-carboxylic acid] |  | 0.05 to 0.3
CCc1cc(-c2ccc3ncc(F)cc3c2)ccc1[C@@H](Oc1cc(N2CCC3(CC2)CN[C@H](C(=O)O)C3)nc(N)n1)C(F)(F)F [Example 59d, (S)-8-(2-amino-6-((R)-1-(2-ethyl-4-(3-fluoroquinolin-6-yl)phenyl)-2,2,2-trifluoroethoxy)pyrimidin-4-yl)-2,8-diazaspiro[4.5]decane-3-carboxylic acid] |  | 0.05 to 0.3
CS(=O)(=O)c1cccc(-c2cc(Cl)ccc2COc2cc(N3CCC4(CC3)CN[C@H](C(=O)O)C4)nc(N)n2)c1 [Example 62, (S)-8-(2-amino-6-((5-chloro-3′-(methylsulfonyl)-[1,1′-biphenyl]-2-yl)methoxy)pyrimidin-4-yl)-2,8-diazaspiro[4.5]decane-3-carboxylic acid] |  | 0.05 to 0.3
CCOC(=O)C1CC2(CCN(c3cc(O[C@H](c4ccc(Cl)cc4-n4ccc(C)n4)C(F)(F)F)nc(N)n3)CC2)CN1 (stereo partly drawn) [Example 63ay, ethyl 8-(2-amino-6-((R)-1-(4-chloro-2-(3-methyl-1H-pyrazol-1-yl)phenyl)-2,2,2-trifluoroethoxy)pyrimidin-4-yl)-2,8-diazaspiro[4.5]decane-3-carboxylate] | *** (*** refers to P<0.005) | 
CCOC(=O)[C@@H]1CC2(CCN(c3cc(O[C@H](c4ccc(-c5cccc(OC)c5)cc4)C(F)(F)F)nc(N)n3)CC2)CN1 [Example 63ba, (S)-ethyl 8-(2-amino-6-((R)-2,2,2-trifluoro-1-(3′-methoxy-[1,1′-biphenyl]-4-yl)ethoxy)pyrimidin-4-yl)-2,8-diazaspiro[4.5]decane-3-carboxylate] | *** (*** refers to P<0.005) | 
CCOC(=O)[C@@H]1CC2(CCN(c3cc(O[C@H](c4ccc(CC)cc4-n4ccc(C)n4)C(F)(F)F)nc(N)n3)CC2)CN1 [Example 63be, (S)-ethyl 8-(2-amino-6-((R)-1-(4-ethyl-2-(3-methyl-1H-pyrazol-1-yl)phenyl)-2,2,2-trifluoroethoxy)pyrimidin-4-yl)-2,8-diazaspiro[4.5]decane-3-carboxylate] | *** (*** refers to P<0.005) | 
CCOC(=O)c1ccc(-n2ccc(C)n2)c([C@@H](Oc2cc(N3CCC4(CC3)CN[C@H](C(=O)OCC)C4)nc(N)n2)C(F)(F)F)c1 [Example 63bh, (S)-ethyl 8-(2-amino-6-((R)-1-(5-(ethoxycarbonyl)-2-(3-methyl-1H-pyrazol-1-yl)phenyl)-2,2,2-trifluoroethoxy)pyrimidin-4-yl)-2,8-diazaspiro[4.5]decane-3-carboxylate] | ** (** refers to P<0.01) | 
(S)-8-(2-Amino-6-((4-(3-methyl-H-indazol-6-yl)phenoxy)methyl)pyrimidin-4-yl)-2,8-diazaspiro[4.5]decane-3-carboxylic acid [Example 61] |  | 0.05 to 0.3
(S)-8-(2-amino-6-((R)-1-(3,4-dihydroquinazolin-6-yl)-2,2,2-trifluoroethoxy)pyrimidin-4-yl)-2,8-diazaspiro[4.5]decane-3-carboxylic acid [Example 57] |  | 0.05 to 0.3
(S)-8-(2-amino-6-((R)-1-(4-bromo-2-(3-methyl-H-pyrazol-1-yl)phenyl)-2,2,2-trifluoroethoxy)pyrimidin-4-yl)-2,8-diazaspiro[4.5]decane-3-carboxylic acid [Example 10o] |  | < 0.05
(S)-8-(2-amino-6-((R)-1-(5-chloro-3′-isopropyl-[1,1′- biphenyl]-2-yl)-2,2,2-trifluoroethoxy)pyrimidin-4- yl)-2,8-diazaspiro[4.5]decane-3-carboxylic acid [Example 34ce] |  | 0.05 to 0.3
(S)-8-(2-amino-6-((R)-2,2,2-trifluoro-1-(3-(3- methyl-1H-pyrazol-1-yl)-2′,3′,4′,5′-tetrahydro- [1,1′-biphenyl]-4-yl)ethoxy)pyrimidin-4-yl)- 2,8-diazaspiro[4.5]decane-3-carboxylic acid [Example 1v] |  | < 0.05
(S)-8-(2-amino-6-((R)-2,2,2-trifluoro-1-(3′,4,5′- trifluoro-[1,1′-biphenyl]-4-yl)ethoxy)pyrimidin-4- yl)-2,8-diazaspiro[4.5]decane-3-carboxylic acid [Example 55co] |  | 0.05 to 0.3
(S)-8-(6-((R)-1-(4-(1H-indol-6-yl)-2-(3-methyl- 1H-pyrazol-1-yl)phenyl)-2,2,2-trifluoroethoxy)- 2-aminopyrimidin-4-yl)-2,8- diazaspiro[4.5]decane-3-carboxylic acid [Example 1aa] |  | < 0.05

— patent publication US11759462B2, “Spirocyclic compounds as tryptophan hydroxylase inhibitors” (priority 2013, dated 2023)
